Read-outs that look alike come from different tables or passages of the source. Where a SMILES comes first, the peptide text is derived from it. The star is where a group is joined. Cbz = O=C(OCc1ccccc1)*; CHN2 = [N-]=[N+]=C*; tBu = CC(C)(C)*
Experiments:
in vitro = conditions: human
[1] = system: HIV/MARV pseudovirus (Marburg virus Musoke glycoprotein); assay: organism not typed; format: cell-based; conditions: for IC50: read-out: IC50 HIV/MARV
[2] = system: HIV/EBOV pseudovirus (Ebola virus Zaire Mayinga glycoprotein); assay: organism not typed; format: cell-based; conditions: for IC50: read-out: IC50 HIV/EBOV
[3] = system: HIV/MLAV pseudovirus (Měnglà virus glycoprotein); assay: organism not typed; format: cell-based; conditions: for IC50: read-out: IC50 HIV/MLAV
[4] = system: HIV/VSV pseudovirus (control); format: cell-based, vesicular stomatitis virus
MLAV = conditions: cited from earlier work

Row | Structure (SMILES) | CC50 (in vitro) [µM] | IC50 ([1]; A549, 48 h) [µM] | IC50 ([2]; A549, 48 h) [µM] | IC50 ([3]; A549, 48 h) [µM] | other results
1 | CC(C)COCC(CN(Cc1ccccc1)c1ccccc1)N1CCCC1 (centres unmarked) [Bepridil] | 34.7 ± 4.6 | 7.37 ± 0.9 | 3.27 ± 0.4 | 9.74 ± 0.94 | –
2 | CN[C@H]1CC[C@@H](c2ccc(Cl)c(Cl)c2)c2ccccc21 [Sertraline] | 15 ± 0.9 | – | – | – | –
3 | CC(C)[C@H](NC(=O)OCc1ccccc1)C(=O)N[C@H](C=O)Cc1ccccc1 [MDL‐28170] (Cbz-Val-Phe-aldehyde) | > 100 | 1.69 ± 0.46 | 1.44 ± 0.2 | 9.46 ± 1.69 | inhibition of MARV pseudovirus entry (in words) [1]: can block; inhibition of EBOV pseudovirus entry (in words) [2]: can block; inhibition of MLAV pseudovirus entry (in words) [3]: can block
4 | CC(C)(C)Oc1ccc(C[C@H](NC(=O)[C@H](Cc2ccccc2)NC(=O)OCc2ccccc2)C(=O)C=[N+]=[N-])cc1 [Cathepsin L Inhibitor III] (Cbz-Phe-Tyr(tBu)-CHN2) | – | – | – | – | IC50 [1]: 2.38 ± 0.4 µM; IC50 [2]: 0.75 ± 0.19 µM; CC50 (A549 cells): > 100 µM; IC50 [3]: 7.14 ± 1.5 µM; inhibition of VSV pseudovirus entry at 100 µM (in words) [4]: no inhibition
5 | CC(=O)N[C@@H](CC(C)C)C(=O)N[C@@H](CC(C)C)C(=O)N[C@H](C=O)CCCNC(=N)N [Leupeptin] | > 100 | 0.92 ± 0.27 | 0.41 ± 0.04 | 1.24 ± 0.29 | inhibition of VSV pseudovirus entry (in words) [4]: ineffective
6 | CNCCC(Oc1ccc(C(F)(F)F)cc1)c1ccccc1 (centres unmarked) [Fluoxetine] | 28.7 ± 0.1 | – | – | – | –
7 | Fc1ccc([C@@H]2CCNC[C@H]2COc2ccc3c(c2)OCO3)cc1 [Paroxetine] | 23.6 ± 2.5 | 1.83 ± 0.66 | 0.36 ± 0.4 | 4.88 ± 1.7 | selectivity index (SI) with MLAV [3]: 5
8 | CCCNC(=O)[C@H]1O[C@@H]1C(=O)N[C@H](C(=O)N1CCC[C@H]1C(=O)O)[C@@H](C)CC [CA‐074] | – | – | – | – | inhibition of MARV pseudovirus entry at 100 µM (in words) ([1]; at 100 µM): resistant; IC50 [1]: > 100 µM; IC50 [2]: 28.4 ± 6.56 µM; CC50 (A549 cells): > 100 µM; inhibition of MLAV pseudovirus entry at 100 µM (in words) ([3]; at 100 µM): resistant; IC50 [3]: > 100 µM; inhibition of VSV pseudovirus entry at 100 µM (in words) [4]: resistant
9 | CN(C)CCOc1ccc(/C(=C(/CCCl)c2ccccc2)c2ccccc2)cc1 [Toremifene] | 25.3 ± 1.6 | 1.75 ± 0.86 | 0.06 ± 0.05 | 3.63 ± 0.72 | inhibition of MLAV (in words) (MLAV): inhibited MLAV
10 | CCCCOc1cc(C(=O)NCCN(CC)CC)c2ccccc2n1 [Dibucaine] | 51.3 ± 1.2 | 5.82 ± 0.37 | 2.93 ± 1.04 | 10.8 ± 1.68 | –
11 | CN1[C@@H]2CC[C@H]1C[C@@H](OC(c1ccccc1)c1ccccc1)C2 [Benztropine] | 54.5 ± 2 | – | – | – | –
12 | NCCc1ccc(S(=O)(=O)F)cc1 [AEBSF] | – | – | – | – | inhibition of MARV pseudovirus entry (in words) [1]: limited inhibition; IC50 [1]: 29 ± 1.7 µM; inhibition of EBOV pseudovirus entry (in words) [2]: limited inhibition; IC50 [2]: 19.1 ± 0.58 µM; CC50 (A549 cells): ~100 µM; inhibition of MLAV pseudovirus entry (in words) [3]: unable to effectively inhibit; IC50 [3]: 36.7 ± 10.4 µM
13 | CN(C)CCCN1c2ccccc2CCc2ccccc21 [Imipramine] | 76.3 ± 7.4 | 5.55 ± 1.12 | 2 ± 0.65 | 7.91 ± 0.81 | –

From publication PMC9161972 (Journal of Medical Virology, 2022)
